Values joined by “and” are separate entries in the source; they are usually repeats but may differ in a detail not shown here. Equal entries are not always repeated. Toxic doses and inconclusive results are not listed.
System: P388 leukemia ip, CD2F1 mice, survival T/C
Assay: NCI In Vivo Anticancer Drug Screen. Data for tumor model P388 Leukemia (intraperitoneal) in CD2F1 (CDF1) mice
Details: endpoint: median survival time, higher = longer survival
In short: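 Mice carrying the transplanted tumor received test compound or vehicle. Survival was recorded in each group, and the value is the treated-group measurement divided by that of the vehicle-treated control group.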

[1] = dose: 100.0 mg/kg/injection, schedule: Q01DX009 (ip), vehicle: saline with Tween-80
[2] = dose: 200.0 mg/kg/injection, schedule: Q01DX009 (ip), vehicle: saline with Tween-80
[3] = dose: 400.0 mg/kg/injection, schedule: Q01DX009 (ip), vehicle: saline with Tween-80
[4] = dose: 50.0 mg/kg/injection, schedule: Q01DX005 (ip), vehicle: Klucel (hydroxypropylcellulose) (HPC)
[5] = dose: 100.0 mg/kg/injection, schedule: Q01DX005 (ip), vehicle: Klucel (hydroxypropylcellulose) (HPC)
[6] = dose: 50.0 mg/kg/injection, schedule: Q01DX009 (ip), vehicle: Klucel (hydroxypropylcellulose) (HPC)
[7] = dose: 100.0 mg/kg/injection, schedule: Q01DX009 (ip), vehicle: Klucel (hydroxypropylcellulose) (HPC)
[8] = dose: 200.0 mg/kg/injection, schedule: Q01DX009 (ip), vehicle: Klucel (hydroxypropylcellulose) (HPC)
[9] = dose: 60.0 mg/kg/injection, schedule: Q01DX005 (ip), vehicle: saline with Tween-80
[10] = dose: 120.0 mg/kg/injection, schedule: Q01DX005 (ip), vehicle: saline with Tween-80
[11] = dose: 50.0 mg/kg/injection, schedule: Q01DX005 (ip), vehicle: saline with Tween-80
[12] = dose: 200.0 mg/kg/injection, schedule: Q01DX005 (ip), vehicle: saline with Tween-80

## [N-]=[N+]=CC(=O)CCC(N)C(=O)O (stereo not given)
dose: 0.04 mg/kg/injection, schedule: Q01DX009 (ip), vehicle: saline
  T/C: 121 % of control
dose: 0.05 mg/kg/injection, schedule: Q01DX009 (ip), vehicle: saline
  T/C: 158 % of control
dose: 0.08 mg/kg/injection, schedule: Q01DX005 (ip), vehicle: saline
  T/C: 118 % of control
dose: 0.08 mg/kg/injection, schedule: Q01DX005 (iv), vehicle: saline
  T/C: 109 % of control
dose: 0.08 mg/kg/injection, schedule: Q01DX009 (ip), vehicle: saline
  T/C: 155 % of control
dose: 0.1 mg/kg/injection, schedule: Q01DX009 (ip), vehicle: saline
  T/C: 178 % of control
dose: 0.15 mg/kg/injection, schedule: Q01DX005 (ip), vehicle: saline
  T/C: 121 % of control
dose: 0.15 mg/kg/injection, schedule: Q01DX005 (iv), vehicle: saline
  T/C: 110 % of control
dose: 0.15 mg/kg/injection, schedule: Q01DX009 (ip), vehicle: saline
  T/C: 161 % of control and 171 % of control
dose: 0.2 mg/kg/injection, schedule: Q01DX009 (ip), vehicle: saline
  T/C: 206 % of control
dose: 0.3 mg/kg/injection, schedule: Q01DX005 (iv), vehicle: saline
  T/C: 112 % of control
dose: 0.3 mg/kg/injection, schedule: Q01DX009 (ip), vehicle: saline
  T/C: 103 % of control and 105 % of control
dose: 0.4 mg/kg/injection, schedule: Q01DX009 (ip), vehicle: saline
  T/C: 235 % of control
dose: 0.6 mg/kg/injection, schedule: Q01DX005 (ip), vehicle: saline
  T/C: 153 % of control
dose: 0.6 mg/kg/injection, schedule: Q01DX009 (ip), vehicle: saline
  T/C: 87 % of control
dose: 0.8 mg/kg/injection, schedule: Q01DX009 (ip), vehicle: saline
  T/C: 94 % of control
dose: 1.0 mg/kg/injection, schedule: Q04DX003 (ip), vehicle: saline
  T/C: 160 % of control
dose: 2.0 mg/kg/injection, schedule: Q04DX003 (ip), vehicle: saline
  T/C: 158 % of control
dose: 4.0 mg/kg/injection, schedule: Q04DX003 (ip), vehicle: saline
  T/C: 180 % of control
dose: 8.0 mg/kg/injection, schedule: Q04DX003 (ip), vehicle: saline
  T/C: 202 % of control
dose: 16.0 mg/kg/injection, schedule: Q04DX003 (ip), vehicle: saline
  T/C: 247 % of control
dose: 54.0 micrograms/kg/injection, schedule: Q01DX009 (ip), vehicle: saline
  T/C: 151 % of control and 158 % of control
dose: 62.5 micrograms/kg/injection, schedule: Q01DX009 (ip), vehicle: saline
  T/C: 160 % of control
dose: 90.0 micrograms/kg/injection, schedule: Q01DX009 (ip), vehicle: saline
  T/C: 166 % of control and 182 % of control
dose: 125.0 micrograms/kg/injection, schedule: Q01DX009 (ip), vehicle: saline
  T/C: 190 % of control
dose: 150.0 micrograms/kg/injection, schedule: Q01DX009 (ip), vehicle: saline
  T/C: 188 % of control and 192 % of control
dose: 250.0 micrograms/kg/injection, schedule: Q01DX009 (ip), vehicle: saline
  T/C: 109 % of control and 208 % of control and 236 % of control
dose: 417.0 micrograms/kg/injection, schedule: Q01DX009 (ip), vehicle: saline
  T/C: 221 % of control and 90 % of control
dose: 500.0 micrograms/kg/injection, schedule: Q01DX009 (ip), vehicle: saline
  T/C: 94 % of control

## COc1cccc2c1C(=O)c1c(cc3c(c1O)[C@@H](OC1CC(NC(=O)c4ccc(N=[N+]=[N-])cc4)C(O)C(C)O1)C[C@](O)(C(C)=O)C3)C2=O (stereo not given in full)
dose: 6.25 mg/kg/injection, schedule: Q04DX003 (ip), vehicle: olive oil, sesame oil, peanut oil
  T/C: 100 % of control
dose: 12.5 mg/kg/injection, schedule: Q04DX003 (ip), vehicle: olive oil, sesame oil, peanut oil
  T/C: 97 % of control
dose: 25.0 mg/kg/injection, schedule: Q04DX003 (ip), vehicle: olive oil, sesame oil, peanut oil
  T/C: 100 % of control
dose: 50.0 mg/kg/injection, schedule: Q04DX003 (ip), vehicle: olive oil, sesame oil, peanut oil
  T/C: 112 % of control

## O=C1N=C2C=CC=CN2C(=O)C1Cc1ccccc1 (stereo not given)
[1]
  T/C: 120 % of control
[2]
  T/C: 110 % of control
[3]
  T/C: 90 % of control

## CC(C)(C)OC(=O)NCC(=O)NC(CSC(c1ccccc1)c1ccccc1)C(=O)NCC(=O)O (stereo not given)
[4]
  T/C: 105 % of control
[5]
  T/C: 99 % of control

## CN1CN=C(Sc2ccc(Cl)cc2[N+](=O)[O-])NC1
dose: 50.0 mg/kg/injection, schedule: Q01DX009 (ip), vehicle: saline
  T/C: 89 % of control
dose: 100.0 mg/kg/injection, schedule: Q01DX009 (ip), vehicle: saline
  T/C: 100 % of control
dose: 200.0 mg/kg/injection, schedule: Q01DX009 (ip), vehicle: saline
  T/C: 104 % of control

## COc1cccc2c1CCC1=CC(=O)CCC12C (stereo not given)
[4]
  T/C: 102 % of control
[5]
  T/C: 96 % of control
dose: 200.0 mg/kg/injection, schedule: Q01DX005 (ip), vehicle: Klucel (hydroxypropylcellulose) (HPC)
  T/C: 93 % of control

## CCOC(=O)C1CN(C(=O)OCC)CCC1NC(C)=O (stereo not given)
dose: 60.0 mg/kg/injection, schedule: Q01DX005 (ip), vehicle: Klucel (hydroxypropylcellulose) (HPC)
  T/C: 102 % of control
dose: 120.0 mg/kg/injection, schedule: Q01DX005 (ip), vehicle: Klucel (hydroxypropylcellulose) (HPC)
  T/C: 96 % of control
dose: 240.0 mg/kg/injection, schedule: Q01DX005 (ip), vehicle: Klucel (hydroxypropylcellulose) (HPC)
  T/C: 98 % of control

## CCCC1(c2ccccc2)CCCC(C#N)C1=N (stereo not given)
dose: 100.0 mg/kg/injection, schedule: Q04DX003 (ip), vehicle: Klucel (hydroxypropylcellulose) (HPC)
  T/C: 97 % of control
dose: 200.0 mg/kg/injection, schedule: Q04DX003 (ip), vehicle: Klucel (hydroxypropylcellulose) (HPC)
  T/C: 98 % of control
dose: 400.0 mg/kg/injection, schedule: Q04DX003 (ip), vehicle: Klucel (hydroxypropylcellulose) (HPC)
  T/C: 92 % of control

## O=c1c(-c2ccccc2)c(O)on1/C=C1/C=CC=N1
dose: 50.0 mg/kg/injection, schedule: Q01DX009 (ip), vehicle: saline with Tween-80
  T/C: 105 % of control
[1]
  T/C: 95 % of control
[2]
  T/C: 103 % of control

## CCN1C(=O)CSC1=S
dose: 6.25 mg/kg/injection, schedule: Q04DX002 (ip), vehicle: Klucel (hydroxypropylcellulose) (HPC)
  T/C: 112 % of control
dose: 12.5 mg/kg/injection, schedule: Q04DX002 (ip), vehicle: Klucel (hydroxypropylcellulose) (HPC)
  T/C: 110 % of control
dose: 25.0 mg/kg/injection, schedule: Q04DX002 (ip), vehicle: Klucel (hydroxypropylcellulose) (HPC)
  T/C: 105 % of control
dose: 50.0 mg/kg/injection, schedule: Q04DX002 (ip), vehicle: Klucel (hydroxypropylcellulose) (HPC)
  T/C: 109 % of control

## COC(=O)NCP(=O)(CNC(=O)OC)CNC(=O)OC
[6]
  T/C: 100 % of control
[7]
  T/C: 98 % of control
[8]
  T/C: 100 % of control

## O=C(O)CCCCCCCCCCC1C=CCC1 (stereo not given)
dose: 100.0 mg/kg/injection, schedule: Q04DX003 (ip), vehicle: saline
  T/C: 93 % of control
dose: 200.0 mg/kg/injection, schedule: Q04DX003 (ip), vehicle: saline
  T/C: 93 % of control
dose: 400.0 mg/kg/injection, schedule: Q04DX003 (ip), vehicle: saline
  T/C: 93 % of control

## CCOC(=O)C1=C(C(=O)c2ccc(C)cc2)C(c2ccc([N+](=O)[O-])cc2)C(C(=O)c2ccc(C)cc2)=C(C(=O)OCC)N1
[9]
  T/C: 90 % of control
[10]
  T/C: 90 % of control

## NCC1CCC(C(=O)O)CC1 (stereo not given)
[11]
  T/C: 94 % of control
dose: 100.0 mg/kg/injection, schedule: Q01DX005 (ip), vehicle: saline with Tween-80
  T/C: 92 % of control
[1]
  T/C: 99 % of control
[12]
  T/C: 100 % of control
[2]
  T/C: 101 % of control
dose: 400.0 mg/kg/injection, schedule: Q01DX005 (ip), vehicle: saline with Tween-80
  T/C: 103 % of control
[3]
  T/C: 100 % of control
dose: 800.0 mg/kg/injection, schedule: Q01DX005 (ip), vehicle: saline with Tween-80
  T/C: 89 % of control

## O=C(NC(=O)C1CCC(=O)N1Cc1ccccc1)NC1CCC(=O)N1Cc1ccccc1 (stereo not given)
[9]
  T/C: 96 % of control
[10]
  T/C: 94 % of control

## COc1ccc(NC(=S)Nc2ccccc2C(F)(F)F)c(OC)c1
[6]
  T/C: 99 % of control
[7]
  T/C: 95 % of control
[8]
  T/C: 94 % of control

## S=c1[nH]c(=S)c2[nH]c(=S)[nH]c2[nH]1
dose: 12.5 mg/kg/injection, schedule: Q01DX005 (ip), vehicle: saline with Tween-80
  T/C: 92 % of control
dose: 25.0 mg/kg/injection, schedule: Q01DX005 (ip), vehicle: saline with Tween-80
  T/C: 96 % of control
[11]
  T/C: 90 % of control and 95 % of control
[12]
  T/C: 89 % of control

## COc1cc(/C=C/Cc2cc3c(cc2O)OCO3)cc(OC)c1OC
[9]
  T/C: 95 % of control
[10]
  T/C: 90 % of control
dose: 240.0 mg/kg/injection, schedule: Q01DX005 (ip), vehicle: saline with Tween-80
  T/C: 89 % of control

— PubChem BioAssay AID330 (DTP/NCI, 2004)
